Experimental findings from US10906910B2, “Substituted bicyclic pyrimidine compounds with tubulin and multiple receptor inhibition” (Duquesne University of the Holy Spirit, priority 2014, dated 2021) are described below.

Where a name gives a salt, the structure may show the parent alone. Read-outs that look alike come from different tables or passages of the source.

One data set deals with bovine brain tubulin. The data set can be described thus: inhibition of tubulin assembly. The data set is classed as biochemical. The following applies: bovine tubulin.
In another data set the target is VEGFR2 (Homo sapiens, UniProt P35968). As to the kind of experiment: VEGFR2 kinase inhibition, whole-cell assay. The data set is classed as cell-based. As to conditions: read-out: kinase inhibition IC50 [whole-cell assays] VEGFR2.
In another data set the target is PDGFRβ (Homo sapiens, UniProt P09619). The data set can be described thus: PDGFRβ kinase inhibition, whole-cell assay. The data set is classed as cell-based. The following applies: for IC50: whole-cell assay, read-out: kinase inhibition IC50 [whole-cell assays] PDGFRβ.
The target in the next data set is EGFR (Homo sapiens, UniProt P00533). The data set can be described thus: EGFR kinase inhibition, whole-cell assay. The data set is classed as cell-based. The following applies: read-out: kinase inhibition IC50 [whole-cell assays] EGFR.
A further data set relates to A431 cells. The data set can be described thus: A431 cytotoxicity. It counts as cell-based. As to conditions: Homo sapiens, A-431.
For the next data set, the system named is wild type HeLa cells. As to the kind of experiment: HeLa cytotoxicity, wild type. It counts as cell-based.
Data set [1] relates to βIII-tubulin overexpressing HeLa cell line. The data set can be described thus: HeLa cytotoxicity, βIII-tubulin overexpressing. It counts as cell-based. As to conditions: for IC50: βIII-tubulin overexpressing HeLa.
The subject of data set [2] is 4T1-Luc2GFP triple negative mouse breast cancer cells. It counts as in vivo. As to conditions: for animal weight: mouse, in vivo. Here is the method:
(§1) BALB/c mice were implanted with 7.5 k 4T1-Luc2GFP triple negative mouse breast cancer cells orthotopically into mammary fat pad 4. 7 days after implantation, tumors are visible in over 90% of animals. At day 8 and continuing twice weekly until the experiment end, the MTD of compound 4.HCl (i.e. the hydrochloride salt of compound 4 shown in FIG. 1), determined to be 40 mg/kg, was given IP to tumor-bearing mice; […]; Both drugs were in solvent (5% solutol-15, 5% PharmaSolve in normal saline) and a solvent control group was included in addition to sham injected (untreated) group. Primary tumor volume and animal weights was assessed by calipers throughout the experiment.
On day 40, all animals were injected IV with fluorescently labeled dextran as a marker of vasculature. Tumors were excised and weighed; lungs were excised and evaluated for metastases. […]; large micro metastases (>10 cells with no vasculature) and macrometastases (>10 cells with apparent vasculature) were counted. […]

The next data set can be described thus: MTD in mice. The following applies: BALB/c, mouse, in vivo, ip. Here is the method:
as §1

Sequence of PDGFRβ (P09619 33-1106, species assumed): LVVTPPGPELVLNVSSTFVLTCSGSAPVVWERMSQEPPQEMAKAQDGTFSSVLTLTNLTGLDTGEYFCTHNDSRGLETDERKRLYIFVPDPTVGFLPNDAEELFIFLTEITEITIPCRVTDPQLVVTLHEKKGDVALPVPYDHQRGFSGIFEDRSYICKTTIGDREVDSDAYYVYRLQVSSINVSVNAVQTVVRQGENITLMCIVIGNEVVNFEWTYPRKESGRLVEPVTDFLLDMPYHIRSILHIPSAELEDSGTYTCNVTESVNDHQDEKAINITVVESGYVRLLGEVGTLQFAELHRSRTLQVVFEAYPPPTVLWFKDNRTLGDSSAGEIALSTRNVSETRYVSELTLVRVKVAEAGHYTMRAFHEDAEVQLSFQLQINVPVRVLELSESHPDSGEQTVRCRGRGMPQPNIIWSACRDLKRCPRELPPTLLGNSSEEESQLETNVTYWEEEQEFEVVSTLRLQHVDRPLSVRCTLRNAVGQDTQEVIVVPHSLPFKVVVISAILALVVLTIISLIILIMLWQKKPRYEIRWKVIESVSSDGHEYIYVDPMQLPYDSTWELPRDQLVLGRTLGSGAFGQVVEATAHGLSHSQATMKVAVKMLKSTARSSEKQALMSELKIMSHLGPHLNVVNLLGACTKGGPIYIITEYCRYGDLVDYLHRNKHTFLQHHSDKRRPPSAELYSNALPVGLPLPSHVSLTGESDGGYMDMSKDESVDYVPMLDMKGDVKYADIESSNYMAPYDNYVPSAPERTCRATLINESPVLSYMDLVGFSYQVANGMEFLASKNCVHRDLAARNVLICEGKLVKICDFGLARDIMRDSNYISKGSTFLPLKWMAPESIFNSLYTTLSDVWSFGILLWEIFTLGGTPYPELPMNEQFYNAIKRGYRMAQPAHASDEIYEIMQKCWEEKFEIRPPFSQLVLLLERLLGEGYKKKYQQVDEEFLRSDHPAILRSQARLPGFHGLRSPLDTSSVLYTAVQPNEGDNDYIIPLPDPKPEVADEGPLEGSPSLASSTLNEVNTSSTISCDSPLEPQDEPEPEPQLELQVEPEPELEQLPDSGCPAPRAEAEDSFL
Sequence of VEGFR2 (P35968 20-1356, species assumed): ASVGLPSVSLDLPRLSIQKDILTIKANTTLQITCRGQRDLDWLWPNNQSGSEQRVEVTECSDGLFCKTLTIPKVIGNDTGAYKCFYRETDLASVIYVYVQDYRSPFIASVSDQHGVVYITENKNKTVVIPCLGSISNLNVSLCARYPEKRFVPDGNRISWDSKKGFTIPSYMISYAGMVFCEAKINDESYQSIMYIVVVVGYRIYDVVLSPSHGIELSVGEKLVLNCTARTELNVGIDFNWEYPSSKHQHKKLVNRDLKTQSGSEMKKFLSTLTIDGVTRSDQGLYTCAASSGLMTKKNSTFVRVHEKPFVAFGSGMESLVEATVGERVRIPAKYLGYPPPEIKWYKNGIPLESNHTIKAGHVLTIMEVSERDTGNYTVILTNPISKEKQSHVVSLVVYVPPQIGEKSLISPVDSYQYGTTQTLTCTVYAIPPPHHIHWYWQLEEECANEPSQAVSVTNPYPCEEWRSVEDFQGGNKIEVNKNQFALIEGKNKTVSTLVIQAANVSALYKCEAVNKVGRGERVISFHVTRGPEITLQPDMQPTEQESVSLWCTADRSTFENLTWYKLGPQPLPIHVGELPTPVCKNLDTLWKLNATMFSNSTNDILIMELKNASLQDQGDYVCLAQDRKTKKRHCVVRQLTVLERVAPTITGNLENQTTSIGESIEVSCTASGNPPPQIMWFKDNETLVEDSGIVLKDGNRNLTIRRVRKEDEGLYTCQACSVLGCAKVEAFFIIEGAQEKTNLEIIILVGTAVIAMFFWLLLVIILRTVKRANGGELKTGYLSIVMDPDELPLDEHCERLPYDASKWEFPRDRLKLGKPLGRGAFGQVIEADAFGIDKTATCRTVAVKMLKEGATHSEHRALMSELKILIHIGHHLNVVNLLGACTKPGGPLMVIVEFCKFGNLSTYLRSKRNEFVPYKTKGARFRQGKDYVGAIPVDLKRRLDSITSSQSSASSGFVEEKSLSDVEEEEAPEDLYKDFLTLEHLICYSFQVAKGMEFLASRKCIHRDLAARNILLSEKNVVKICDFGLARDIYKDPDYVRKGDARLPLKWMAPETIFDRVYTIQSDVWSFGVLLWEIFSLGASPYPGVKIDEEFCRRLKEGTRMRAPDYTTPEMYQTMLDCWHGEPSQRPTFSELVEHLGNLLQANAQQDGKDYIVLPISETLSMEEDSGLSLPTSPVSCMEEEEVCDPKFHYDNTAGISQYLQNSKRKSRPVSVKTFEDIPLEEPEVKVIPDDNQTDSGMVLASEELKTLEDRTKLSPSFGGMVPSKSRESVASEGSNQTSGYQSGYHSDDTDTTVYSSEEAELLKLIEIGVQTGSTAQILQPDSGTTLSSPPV
Sequence of EGFR (P00533 25-1210, species assumed): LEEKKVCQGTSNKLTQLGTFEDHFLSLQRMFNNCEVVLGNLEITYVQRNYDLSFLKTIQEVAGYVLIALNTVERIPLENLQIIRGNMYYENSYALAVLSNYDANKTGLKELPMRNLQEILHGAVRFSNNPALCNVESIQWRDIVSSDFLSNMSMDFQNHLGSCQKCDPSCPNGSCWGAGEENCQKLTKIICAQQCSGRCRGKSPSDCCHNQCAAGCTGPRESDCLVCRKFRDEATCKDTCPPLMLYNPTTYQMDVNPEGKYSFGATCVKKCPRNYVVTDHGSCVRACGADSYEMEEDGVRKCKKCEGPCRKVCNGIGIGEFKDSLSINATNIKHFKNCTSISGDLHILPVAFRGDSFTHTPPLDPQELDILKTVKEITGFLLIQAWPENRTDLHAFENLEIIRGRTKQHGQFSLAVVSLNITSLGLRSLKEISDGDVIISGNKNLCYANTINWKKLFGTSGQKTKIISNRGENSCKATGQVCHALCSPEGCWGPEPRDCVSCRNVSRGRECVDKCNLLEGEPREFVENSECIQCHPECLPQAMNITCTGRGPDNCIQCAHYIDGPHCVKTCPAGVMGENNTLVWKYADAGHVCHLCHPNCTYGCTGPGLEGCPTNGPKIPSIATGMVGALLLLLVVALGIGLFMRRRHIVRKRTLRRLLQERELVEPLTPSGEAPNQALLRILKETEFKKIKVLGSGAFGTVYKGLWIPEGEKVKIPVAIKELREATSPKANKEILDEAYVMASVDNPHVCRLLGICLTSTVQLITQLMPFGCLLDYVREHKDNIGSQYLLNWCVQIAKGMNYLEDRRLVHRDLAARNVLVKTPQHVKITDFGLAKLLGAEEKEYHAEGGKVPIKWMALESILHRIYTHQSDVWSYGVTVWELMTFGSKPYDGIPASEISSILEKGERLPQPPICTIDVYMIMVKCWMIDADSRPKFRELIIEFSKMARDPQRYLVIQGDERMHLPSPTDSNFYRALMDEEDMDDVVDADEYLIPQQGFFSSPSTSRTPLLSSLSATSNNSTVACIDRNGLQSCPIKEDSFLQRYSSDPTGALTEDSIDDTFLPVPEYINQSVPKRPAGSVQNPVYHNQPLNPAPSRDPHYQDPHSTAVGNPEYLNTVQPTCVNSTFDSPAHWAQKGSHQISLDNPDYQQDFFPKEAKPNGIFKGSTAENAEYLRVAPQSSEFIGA

Compound `COc1ccc(Nc2nc(C)nc3c(Cc4ccccc4)cn(C)c23)cc1` (as salt: salt) [Compound 3, 7-Benzyl-N-(4-methoxyphenyl)-2,5-dimethyl-5H-pyrrolo[3,2-d]pyrimidin-4-amine] gave a melting point of 291 to 292 °C.
Take `COc1ccc(Nc2nc(C)nc3c(Cc4ccccc4)cn(C)c23)cc1` [Compound 3, 7-Benzyl-N-(4-methoxyphenyl)-2,5-dimethyl-5H-pyrrolo[3,2-d]pyrimidin-4-amine]: the IC50 is more than 20000 nM in the data set with bovine brain tubulin; 26.7 nM on VEGFR2; 7.2 ± 0.9 nM on PDGFRβ; 2.6 nM at EGFR; 2.3 ± 0.3 nM with A431 cells; 5000 nM with wild type HeLa cells (Homo sapiens). For the same compound, the IC50 in [1] (Homo sapiens) came to 5000 nM. Besides, the “potency against PDGFRβ, in words” value at PDGFRβ is “potencies comparable with DMBI”.
As for `COc1ccc(N(C)c2nc(C)nc3c(Cc4ccccc4)cn(C)c23)cc1` [Compound 4.HCl, 7-Benzyl-N-(4-methoxyphenyl)-N,2,5-trimethyl-5H-pyrrolo[3,2-d]pyrimidin-4-amine], the “4T1 primary tumor growth (volume)” value in data set [2] (40 mg/kg IP twice weekly from day 8, vs carrier or vs doxorubicin, FIG. 2) was “significantly reduced 4T1 primary growth”. The “number of lung small micro metastases” value in [2] (day 40, 1-9 cells without any vasculature, FIG. 5) was “reduced the number of lung small micro metastases”. Besides, the lung macrometastases result in data set [2] (day 40, >10 cells with apparent vasculature, FIG. 5) is “none had any lung macrometastases”. Further, the “tumor weight at the end of the experiment” value in data set [2] (day 40, FIG. 4) was “reduced tumor weight”. For the same compound, the animal weight result in data set [2] was “no change in animal weight”. This compound had an MTD in the data set “MTD in mice” of 40 mg/kg.
Take `COc1ccc2c(c1)CCCN2c1nc(C)nc2c(Cc3ccccc3)cn(C)c12` [Compound 5, 1-(7-Benzyl-2,5-dimethyl-5H-pyrrolo[3,2-d]pyrimidin-4-yl)-6-methoxy-1,2,3,4-tetrahydroquinoline]: the melting point is 130 to 132 °C. In addition, the IC50 at VEGFR2 was 32.9 nM. Besides, on PDGFRβ, the IC50 came to 30.2 nM. Moreover, the half-maximal inhibitory concentration (IC50) at EGFR turned out to be 4.9 ± 0.6 nM. For the same compound, in the data set with wild type HeLa cells (Homo sapiens), the IC50 amounted to 60 nM.
With `COc1ccc(/C=C\c2cc(OC)c(OC)c(OC)c2)cc1O` [combretastatin A-4, reference compound], the IC50 came to 1.8 nM in the data set with wild type HeLa cells and 2.5 ± 0.7 nM in data set [1].
For `CC(=O)O[C@@]12CO[C@@H]1C[C@H](O)[C@@]1(C)C(=O)[C@H](O)C3=C(C)[C@@H](OC(=O)[C@H](O)[C@@H](NC(=O)OC(C)(C)C)c4ccccc4)C[C@@](O)([C@@H](OC(=O)c4ccccc4)[C@H]21)C3(C)C` [docetaxel], the IC50 in the data set with wild type HeLa cells (Homo sapiens) was found to be 4 ± 2 nM; in data set [1] (Homo sapiens), 13 ± 4 nM. The “fold less potent in βIII-tubulin overexpressing cell line than in wild type HeLa cells” value in data set [1] is listed as 3 fold.
In turn, `COc1cccc2c1C(=O)c1c(O)c3c(c(O)c1C2=O)C[C@@](O)(C(=O)CO)C[C@@H]3O[C@H]1C[C@H](N)[C@H](O)[C@H](C)O1` [doxorubicin, reference compound] gave an IC50 with A431 cells of 1.35 nM. The animal weight result in data set [2] is “began to result in weight loss in a few animals”.
On to `CC(=O)O[C@H]1C(=O)[C@@]2(C)[C@H]([C@H](OC(=O)c3ccccc3)[C@]3(O)C[C@H](OC(=O)[C@H](O)[C@@H](NC(=O)c4ccccc4)c4ccccc4)C(C)=C1C3(C)C)[C@]1(OC(C)=O)CO[C@@H]1C[C@@H]2O` [paclitaxel], for which the IC50 with wild type HeLa cells (Homo sapiens) turned out to be 5.3 ± 2 nM; in data set [1] (Homo sapiens) it was 16.1 ± 1 nM. In data set [1], the “fold less potent in βIII-tubulin overexpressing cell line than in wild type HeLa cells” value was 3 fold.

By melting point is commonly meant the temperature, or range, at which the solid turns liquid. What is called IC50 is the concentration that gives 50% inhibition.
